Consider 3 molecules from patent US20260085053A1, “BENZOFURAN DERIVATIVES AS SIK INHIBITORS AND THE USE THEREOF” (BEONE MEDICINES I GMBH, priority 2023, published 2026).

By IC50 is commonly meant the concentration needed to halve the response being measured. Read a low IC50 as greater potency.

SMILES strings stand for the structures.

Assay [1] addresses T1, SIK1 kinase (aa1-303, Thermo Fisher) (Homo sapiens, UniProt P57059).
T1 construct: SIK1 kinase (aa1-303, Thermo Fisher); purchased Thermo Fisher
Description: Biochemical activities determination for SIK1 protein (TR-FRET). Particulars: 110 uM ATP, 0.5 μM STK1 substrate. The procedure, abridged: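 TR-FRET kinase assay with SIK1 (aa1-303), 110 uM ATP, 0.5 μM STK1 substrate and 0-10 μM compound in Tris pH 7.5 with MgCl2, EGTA, DTT, Triton X-100. Enzyme preincubated with compound 60 min, reaction 180 min at room temperature; 665/620 nm ratio after overnight detection; IC50 from four-parameter logistic fit.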

In assay [2] the target is T2, SIK3 kinase (aa59-365, Thermo Fisher) (Homo sapiens, UniProt Q9Y2K2).
T2 construct: SIK3 kinase (aa59-365, Thermo Fisher); purchased Thermo Fisher
T2 sequence (Q9Y2K2 59-365): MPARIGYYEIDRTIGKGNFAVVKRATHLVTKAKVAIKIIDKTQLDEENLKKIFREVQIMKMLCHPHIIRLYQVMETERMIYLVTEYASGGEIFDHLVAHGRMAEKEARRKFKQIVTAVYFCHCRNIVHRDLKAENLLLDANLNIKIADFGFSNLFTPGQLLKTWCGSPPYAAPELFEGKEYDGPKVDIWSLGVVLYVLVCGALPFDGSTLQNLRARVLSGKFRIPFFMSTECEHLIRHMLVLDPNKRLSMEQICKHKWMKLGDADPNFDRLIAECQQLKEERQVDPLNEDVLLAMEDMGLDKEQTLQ
In words: Biochemical activities determination for SIK3 protein (TR-FRET). Particulars: 125 uM ATP, 0.5 μM STK1 substrate. The gist of the method: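 SIK3 (aa59-365) was preincubated with compound (0-10 μM) for 60 min at room temperature in Tris buffer pH 7.5. The reaction was then started with 125 uM ATP and 0.5 μM STK1 substrate and run 180 min at room temperature. Phospho-substrate was detected by HTRF (665/620 nm ratio), and IC50 came from a four-parameter logistic fit.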
A general note: In TR-FRET formats the signal depends on donor and acceptor labels being close together.

The target in assay [3] is T3, SIK2 kinase (full length, Thermo Fisher) (Homo sapiens, UniProt Q9H0K1).
T3 construct: SIK2 kinase (full length, Thermo Fisher); purchased Thermo Fisher
T3 sequence (Q9H0K1 whole entry): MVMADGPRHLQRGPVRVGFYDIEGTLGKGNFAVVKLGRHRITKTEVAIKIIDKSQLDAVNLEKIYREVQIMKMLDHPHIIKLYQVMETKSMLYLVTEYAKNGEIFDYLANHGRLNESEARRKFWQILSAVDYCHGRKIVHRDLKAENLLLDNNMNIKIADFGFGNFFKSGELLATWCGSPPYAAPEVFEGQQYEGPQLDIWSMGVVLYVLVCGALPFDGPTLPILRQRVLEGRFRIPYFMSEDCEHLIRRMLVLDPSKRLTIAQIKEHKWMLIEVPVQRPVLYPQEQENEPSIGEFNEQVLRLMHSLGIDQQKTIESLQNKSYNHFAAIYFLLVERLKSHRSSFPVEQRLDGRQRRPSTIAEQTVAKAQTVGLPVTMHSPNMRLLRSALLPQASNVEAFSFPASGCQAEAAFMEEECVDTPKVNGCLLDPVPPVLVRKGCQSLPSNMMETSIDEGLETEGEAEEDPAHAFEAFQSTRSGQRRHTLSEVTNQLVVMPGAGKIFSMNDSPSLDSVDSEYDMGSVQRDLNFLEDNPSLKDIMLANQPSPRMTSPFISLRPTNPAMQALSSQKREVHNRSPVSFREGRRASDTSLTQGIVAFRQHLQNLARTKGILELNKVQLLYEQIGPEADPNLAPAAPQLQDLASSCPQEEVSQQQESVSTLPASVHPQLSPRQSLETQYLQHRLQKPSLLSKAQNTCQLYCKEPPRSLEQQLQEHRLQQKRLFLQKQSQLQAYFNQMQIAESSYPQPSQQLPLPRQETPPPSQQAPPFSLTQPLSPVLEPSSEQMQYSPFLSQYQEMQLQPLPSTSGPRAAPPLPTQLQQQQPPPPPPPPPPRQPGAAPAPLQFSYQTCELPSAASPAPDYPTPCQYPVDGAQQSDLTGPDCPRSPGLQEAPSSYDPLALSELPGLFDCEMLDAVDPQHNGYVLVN
In words: Biochemical activities determination for SIK2 protein (TR-FRET). Particulars: 80 uM ATP, 0.5 μM substrate. The procedure, abridged: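 Full-length SIK2 preincubated 60 min with 0–10 μM compound, then reacted 180 min at room temperature with 80 uM ATP and 0.5 μM biotinylated substrate (pH 7.5 Tris/MgCl2 buffer). Phosphorylation detected by TR-FRET (665/620 nm ratio, cryptate antibody/streptavidin-XL665) after overnight incubation; IC50 from four-parameter logistic fit.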

T1 sequence (P57059 1-303): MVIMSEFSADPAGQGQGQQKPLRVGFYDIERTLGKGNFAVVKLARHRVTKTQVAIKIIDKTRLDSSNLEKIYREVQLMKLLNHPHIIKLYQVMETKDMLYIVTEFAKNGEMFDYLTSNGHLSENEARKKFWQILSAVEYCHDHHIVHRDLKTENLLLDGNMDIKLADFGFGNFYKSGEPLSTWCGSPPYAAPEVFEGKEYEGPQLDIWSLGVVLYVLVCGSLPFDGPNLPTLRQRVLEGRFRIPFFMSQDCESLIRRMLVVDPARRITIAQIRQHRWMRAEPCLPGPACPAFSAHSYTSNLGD

As to `COc1cc(-c2coc3cc(-c4cn(C)nc4OC)ccc23)cc2c1C(=O)N(CC(F)(F)F)CC2` [Compound 19, 8-methoxy-6-(6-(3-methoxy-1-methyl-1H-pyrazol-4-yl)benzofuran-3-yl)-2-(2,2,2-trifluoroethyl)-3,4-dihydroisoquinolin-1 (2H)-one], the IC50 in assay [1] worked out at 3130 nM; in assay [2] it was 132 nM; in assay [3] it was 80 nM.

As to `O=C1c2c(cc(-c3coc4cc(OCCN5CCCC5)ccc34)cc2OC(F)F)CCN1CC(F)(F)F` [Compound 63, 8-(difluoromethoxy)-6-(6-(2-(pyrrolidin-1-yl)ethoxy)benzofuran-3-yl)-2-(2,2,2-trifluoroethyl)-3,4-dihydroisoquinolin-1 (2H)-one], the values for the IC50 in assay [1], in assay [2] and in assay [3] were above 10000 nM, 300 nM and 67 nM, respectively.

`COc1cc(-c2coc3cc(OCCN4CC[C@H](F)C4)ccc23)cc(OC(F)F)c1C(=O)N[C@@H]1C[C@@H]1F` [Compound 74, 2-(difluoromethoxy)-N-((1R,2S)-2-fluorocyclopropyl)-4-(6-(2-((S)-3-fluoropyrrolidin-1-yl)ethoxy)benzofuran-3-yl)-6-methoxybenzamide]: the IC50 in assay [1] is 1130 nM; in assay [2], 34 nM; in assay [3] it was 26 nM.
